Assay results taken from US6825209B2, “Compounds having unique CB1 receptor binding selectivity and methods for their production and use” (Research Triangle Institute, priority 2002, dated 2004).
Read-outs that look alike come from different tables or passages of the source.

Tests used:
CB1 receptor = biological target: T1, CB1 receptor (Rattus norvegicus, UniProt P20272); experiment: Radioligand displacement in whole rat brain (CB1) membrane preparations; type: binding
T1 construct: Whole rat brains or dissected regions from live CD rats; tissue Charles River or Pel-Freez Biologicals; host or cells: whole rat brain (CD rats), P2 membrane
T1 sequence (P20272 whole entry): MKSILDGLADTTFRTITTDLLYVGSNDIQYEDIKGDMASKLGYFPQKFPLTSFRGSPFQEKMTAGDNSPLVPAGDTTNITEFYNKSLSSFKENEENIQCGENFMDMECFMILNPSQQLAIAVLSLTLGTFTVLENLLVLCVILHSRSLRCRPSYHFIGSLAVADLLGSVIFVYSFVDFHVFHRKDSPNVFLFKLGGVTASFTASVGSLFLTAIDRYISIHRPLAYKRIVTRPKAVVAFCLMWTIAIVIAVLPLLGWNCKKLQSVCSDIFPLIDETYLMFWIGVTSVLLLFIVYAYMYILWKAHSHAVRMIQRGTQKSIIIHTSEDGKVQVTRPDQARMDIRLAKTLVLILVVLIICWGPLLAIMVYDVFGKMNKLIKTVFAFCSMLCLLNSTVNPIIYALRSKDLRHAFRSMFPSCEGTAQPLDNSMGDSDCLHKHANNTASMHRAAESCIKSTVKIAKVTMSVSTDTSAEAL
Text: CB1 receptor affinity in rat brain.
Methods—membrane preparation from brain. The methods for tissue preparation are essentially those described by Devane et al. (1988) as modified by Compton et al. (1993) and later by Thomas et al. (1998). Whole rat brains or dissected regions from live CD rats from Charles River or Pel-Freez Biologicals (Rogers, Ark.), or human brain sections obtained from the National Disease Research Institute, were allowed to thaw to room temperature on ice. Both whole brain and dissected brain regions were used because different brain regions may express different cannabinoid receptor subtypes (Skaper et al., 1996; Thomas et al., 1998). The tissue was homogenized with a Kontes Potter-Elvehjem glass-Teflon grinding system (Fisher Scientific, Springfield, N.J.) in buffer 1 (320 mM sucrose, 2 mM EDTA, 5 mM MgCl2. The homogenate was centrifuged at 1600 g for 10 min. The supernatant was saved and combined with the two subsequent supernatants obtained from washing and 1600 g centrifugation of the P1 pellet. The combined supernatant fractions were then centrifuged at 39,000 g for 15 min. The P2 pellet was resuspended in 50 mL of buffer 2 (50 mM Tris.HCl, 2 mM EDTA, 5 mM MgCl2, pH 7.0), incubated at 37° C. for 10 min, then centrifuged at 23,000 g for 10 min. The P2 membrane was resuspended in 50 mL of buffer 2, incubated at 30° C. for 40 min, then centrifuged at 11,000 g for 15 min. The final wash-treated P2 pellet was resuspended in assay buffer 3 (50 mM Tris.HCl, 1 mM EDTA, 3 MM MgCl2, pH 7.4). Protein concentrations were determined by the method of Bradford (1976) using Coomassie brilliant blue dye (Bio-Rad, Richmond, Calif.) and BSA standards (bovine serum albumin, fatty acid free, Sigma Chemical Co., St. Louis, Mo.) prepared in assay buffer 3. The membrane preparation was divided into aliquots and stored at −80° C. For use in the binding assay, an aliquot of frozen membranes was thawed on ice and diluted to a concentration of ca. 0.2 mg/mL in assay buffer.
Methods—binding assay in brain membrane preparation. The methods for ligand binding are essentially those described by Devane et al. (1988) with the exception that we used a filtration assay. […] All cannabinoid analogs were prepared by suspension in buffer A from a 1-5 mg/mL ethanolic stock. Following incubation at 30° C. for 1 h, binding was terminated by vacuum filtration through pretreated filters in a 96-well sampling manifold (Millipore, Bedford, Mass.). Reaction vessels were washed at least 3 times with 1 mL of ice cold buffer B (50 mM Tris.HCl, 1 mg/mL BSA). The filter plates were air-dried and sealed on the bottom. Liquid scintillant was added to the wells and the top sealed. After incubating the plates in cocktail for at least 2 h, the radioactivity present was determined by liquid scintillation spectrometry. Assays were done in duplicate, and results represent the combined data of three to six independent experiments. All assays were performed in polypropylene test tubes. The GF/C glassfiber filter plates (Packard, Meriden, Conn.) were pretreated in buffer B for at least 1 h.
(§1) Data analysis. Saturation and displacement data were analyzed by unweighted nonlinear regression of receptor binding data. For displacement studies, curve-fitting and IC50 calculation were done with GraphPad Prism (GraphPad Software, Inc., San Diego, Calif.), which fits the data to one and two-site models and compares the two fits statistically. A similar approach was used for the analysis of isotherm data for calculation of Kd's. A two-site fit was accepted only if it was statistically significant (p<0.05) and the following results were not observed:
(§2) IC50 values were then converted to Ki values by reported methods (Cheng and Prusoff, 1973). The statistical evaluation of curve-fitting data allowed for a non-arbitrary conclusion based on the displacement data.

human CB2 receptor = biological target: T2, human CB2 receptor (Homo sapiens, UniProt P34972); experiment: Displacement of 3H-CP55,940 in human CB2 receptor-transfected cells (CHO-K1); type: binding; conditions: radioligand 3H-CP55940, Tables 6 and 7
T2 construct: expressed in transfected cells; host or cells: CHO-K1
T2 sequence (P34972 whole entry): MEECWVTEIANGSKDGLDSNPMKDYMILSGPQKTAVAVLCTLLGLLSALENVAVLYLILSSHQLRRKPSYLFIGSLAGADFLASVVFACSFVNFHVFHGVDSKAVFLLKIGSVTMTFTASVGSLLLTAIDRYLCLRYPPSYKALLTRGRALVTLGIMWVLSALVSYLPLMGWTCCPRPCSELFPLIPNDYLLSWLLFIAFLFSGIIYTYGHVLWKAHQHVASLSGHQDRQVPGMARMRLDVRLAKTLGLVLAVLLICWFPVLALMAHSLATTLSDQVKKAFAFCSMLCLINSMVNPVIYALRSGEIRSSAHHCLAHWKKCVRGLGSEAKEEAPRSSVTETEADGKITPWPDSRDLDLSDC
Protocol: Human CB2 receptor affinity. The relative selectivity of the analogs for CB1 versus CB2 receptors varied modestly regardless of the structural modifications examined to date.
(§3) Methods—binding assay in transfected cell lines. The methods used for performing binding assays in transfected cells expressing human CB1 or CB2 receptors are those used above. The CB1 receptor involved a HEK-293 expression system whereas the CB2 receptor was expressed in CHO-K1 cells. […] The incubations and separations were then performed as described above for rat brain membrane preparations.
as §1, §2

[1] = biological target: T3, G-protein-linked cannabinoid receptors (Rattus norvegicus, UniProt P20272); experiment: GTP-γ-[35S] binding in whole rat brain; type: biochemical; conditions: whole rat brain membranes; for Emax, GTP-γ-[35S] in Whole Rat Brain / Emax: effects reported as percent change from basal; for Emax: read-out: Emax, GTP-γ-[35S] in Whole Rat Brain
T3 construct: tissue Charles River or Pel-Freez Biologicals; host or cells: whole rat brain crude membrane homogenate
T3 sequence (P20272 whole entry): as the sequence (P20272 whole entry) above
Text: Cannabinoid receptor-mediated alteration in GTP-γ-[^35S] binding.
Introduction. The purpose of this assay was to characterize the functional activity of lead compounds identified by the radioligand competition binding assays described above. Data from the GTP-γ-[^35S] binding assay was used to determine if a compound was an agonist, antagonist or inverse agonist at G-protein-linked cannabinoid receptors. Agonist binding to a G-protein-linked receptor results in an increased affinity of the G-protein α-subunit for GTP relative to GDP. Eventually, an active αGTP complex forms to complete the stimulus-effector coupling. The α-subunit has intrinsic GTPase activity which generates a free α-subunit which can recombine with the β- and γ-subunits readying the G-protein for another signal transduction cycle. In the current assay, GTP-γ-[^35S] cannot be hydrolyzed by the α-subunit. Thus, the amount of bound GTP-γ-[^35S] is a marker for G-protein activation. In this assay, an agonist increases basal GTP-γ-[^35S] binding, an inverse agonist decreases basal binding and basal binding would be unaffected by an antagonist.
Experimental Design. The specific binding of GTP-γ-[^35S], in the absence of test compound, was termed “basal” activity. Test compounds were characterized as agonist, antagonist, or inverse agonist based on their effect on basal activity. […] The concentrations spanned two orders of magnitude because affinity may not be related to efficacy. […] Effects of the test compounds are reported as the percent change from basal. More thorough dose-response analysis may be run to determine, for example, if a compound is a full or partial agonist.
Methods. […] In a final volume of 0.5 mL, each assay tube contained: 0.02 mg crude membrane homogenate (0.1 mL), 200 μM GDP (0.05 mL; to reduce basal G-protein activity), 0.1 nM GTP-γ-[^35S] (0.05 mL) and several concentrations of test compound (0.05 mL) or an equivalent volume of vehicle (used for determination of total binding). Nonspecific binding was determined in the presence of 100 μM unlabeled GTP-γ-S (0.05 mL). Duplicate samples were incubated for 1 h at 30° C. Since this assay is amenable for use with high throughput screening methods, the binding assays were run using a 96-well plate format. Specific binding was calculated as total binding-nonspecific binding.

human CB1 receptor = biological target: T4, human CB1 receptor (Homo sapiens, UniProt P21554); experiment: Radioligand displacement in human CB1 receptor-transfected cells (HEK-293); type: binding; conditions: Table 3
T4 construct: expressed in transfected cells; host or cells: HEK-293
T4 sequence (P21554 whole entry): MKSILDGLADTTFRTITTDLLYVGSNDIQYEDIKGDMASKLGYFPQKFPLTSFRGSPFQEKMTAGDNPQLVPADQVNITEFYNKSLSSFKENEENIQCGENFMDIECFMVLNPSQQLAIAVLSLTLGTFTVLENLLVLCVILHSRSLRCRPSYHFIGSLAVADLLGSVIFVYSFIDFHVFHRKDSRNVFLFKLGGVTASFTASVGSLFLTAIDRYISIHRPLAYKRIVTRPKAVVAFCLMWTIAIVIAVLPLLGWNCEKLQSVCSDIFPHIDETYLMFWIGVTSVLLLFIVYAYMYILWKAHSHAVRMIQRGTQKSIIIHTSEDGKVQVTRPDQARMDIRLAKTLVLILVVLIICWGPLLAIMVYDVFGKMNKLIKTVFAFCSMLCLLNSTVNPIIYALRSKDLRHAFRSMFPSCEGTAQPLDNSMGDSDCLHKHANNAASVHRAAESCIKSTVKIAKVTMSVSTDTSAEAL
Protocol: Human CB1 receptor affinity. The alkyl amide analogs of the present invention were examined using transfected cell lines expressing the human CB1 receptor (Table 3).
as §3, §1, §2

[2] = Ki, displacement of 3H-SR141716A, whole rat brain membranes, radioligand 3H-SR141716A, Tables 1 and 2
[3] = whole rat brain membranes, radioligand 3H-SR141716A, Tables 1 and 2
[4] = Ki, displacement of 3H-CP55940, human CB2 transfected cells
[5] = inverse agonist/antagonist activity, read-out: EC50, GTP-γ-[35S] in Whole Rat Brain
[6] = read-out: Ki, displacement of 3H-CP55940, whole rat brain membranes, radioligand 3H-CP55940, Tables 1 and 2
[7] = whole rat brain membranes, radioligand 3H-CP55940, Tables 1 and 2
[8] = read-out: Ki, displacement of 3H-SR141716A, whole rat brain membranes, radioligand 3H-SR141716A, Tables 1 and 2
[9] = displacement of 3H-CP55940, human CB1 transfected cells, radioligand 3H-CP55940
[10] = displacement of 3H-SR141716A, human CB1 transfected cells, radioligand 3H-SR141716A
[11] = human CB1 transfected cells, radioligand 3H-CP55940
[12] = human CB1 transfected cells, radioligand 3H-SR141716A
[13] = human CB1 transfected cells, radioligand 3H-WIN55212-2
[14] = read-out: Ki, displacement of 3H-CP55940, human CB2 transfected cells

Row | Max. Disp. %, 3H-SR141716A (CB1 receptor; [3]) | Max. Disp. %, 3H-CP55940 (human CB2 receptor; human CB2 transfected cells) | EC50 [1, 5] | Ki (CB1 receptor; [6]) | Max. Disp. %, 3H-CP55940 (CB1 receptor; [7]) | Ki (CB1 receptor; [8]) | Ki (human CB2 receptor; [14]) | Emax [1] | Molecule | Emax, GTP-γ-[35S] in Whole Rat Brain [1] | further results
1 | 96.8% | 47.5% | 294000 nM |  |  |  |  |  | Cc1c(C(=O)NC(C)CO)nn(-c2ccc(Cl)cc2Cl)c1-c1ccc(Cl)cc1 (single isomer, unassigned) [MF9725-105-38] | −83.8 | Ki (CB1 receptor; Ki, displacement of 3H-CP55940, whole rat brain membranes, radioligand 3H-CP55940, Tables 1 and 2): 117 nM; Ki (CB1 receptor; [2]): 123 nM; Ki (human CB2 receptor; [4]): 5900 nM
2 | 100% | 52.1% | 292000 nM | 117 nM | 89.7% |  |  |  | Cc1c(C(=O)NC(C)CO)nn(-c2ccc(Cl)cc2Cl)c1-c1ccc(Cl)cc1 (single isomer, unassigned) [MF9725-106-39] | −83.0 | Ki (CB1 receptor; [2]): 99.8 nM; Ki (human CB2 receptor; [4]): 1770 nM
3 | 100% | 59.6% | 30300 nM | 46.3 nM | 91.4% | 61.5 nM | 3110 nM | -46.9% | CCNC(=O)c1nn(-c2ccc(Cl)cc2Cl)c(-c2ccc(Cl)cc2)c1C [MF9725-54C] |  | Ki (human CB1 receptor; [9]): 137 nM; Ki (human CB1 receptor; [10]): 35.1 nM; Ki (human CB1 receptor; displacement of 3H-WIN55212-2, human CB1 transfected cells, radioligand 3H-WIN55212-2): 185 nM; Max. Disp. %, 3H-CP55940 (human CB1 receptor; [11]): 66.7%; Max. Disp. %, 3H-SR141716A (human CB1 receptor; [12]): 95.3%; Max. Disp. %, 3H-WIN55212-2 (human CB1 receptor; [13]): 78.8%
4 | 100% | 68.3% | 11100 nM | 29.9 nM | 97.4% | 23.6 nM | 2960 nM | -35.7% | CCCNC(=O)c1nn(-c2ccc(Cl)cc2Cl)c(-c2ccc(Cl)cc2)c1C [MF9725-55C] |  | Ki (human CB1 receptor; [9]): 33.7 nM; Ki (human CB1 receptor; [10]): 6 nM; Max. Disp. %, 3H-CP55940 (human CB1 receptor; [11]): 81.9%; Max. Disp. %, 3H-SR141716A (human CB1 receptor; [12]): 93.4%; Max. Disp. %, 3H-WIN55212-2 (human CB1 receptor; [13]): 73.3%
5 | 100% | 43.1% | 241000 nM | 160 nM | 86.6% | 156 nM | 1250 nM | -83.3% | Cc1c(C(=O)NCCCO)nn(-c2ccc(Cl)cc2Cl)c1-c1ccc(Cl)cc1 [MF9725-94-31] |  | 
6 | 97.6% | 54.3% | 304000 nM | 154 nM | 88.7% |  | 5720 nM | -79.5% | Cc1c(C(=O)NCCCCO)nn(-c2ccc(Cl)cc2Cl)c1-c1ccc(Cl)cc1 [MF9725-95-31] |  | 
7 | 85.9% | 80.8% |  | 374 nM | 68.4% | 602 nM | 12100 nM | -71.7% | Cc1c(C(=O)NN)nn(-c2ccc(Cl)cc2Cl)c1-c1ccc(Cl)cc1 [MF9879-34-8] |  | EC50 ([1]; value above highest concentration tested (footnote), read-out: EC50, GTP-γ-[35S] in Whole Rat Brain, value is above highest concentration on displacement curve): ≥ 419000 nM

Row | Molecule | Max. Disp. %, 3H-SR141716A (CB1 receptor; [3]) | Max. Disp. %, 3H-CP55940 (human CB2 receptor; human CB2 transfected cells) | EC50 [1, 5] | Ki (CB1 receptor; [6]) | Max. Disp. %, 3H-CP55940 (CB1 receptor; [7]) | Ki (CB1 receptor; [8]) | Ki (human CB2 receptor; [14]) | Emax [1] | Emax, GTP-γ-[35S] in Whole Rat Brain [1] | further results
8 | Cc1c(C(=O)NN2CCCCC2)nn(-c2ccccc2)c1-c1ccc(Cl)cc1 [MF9879-64-23] |  |  | 361000 nM |  |  |  |  |  | −47.2 | 
9 | Cc1c(C(=O)NN2CCCCC2)nn(C2CCCCC2)c1-c1ccc(Cl)cc1 [MF9879-117-24] |  |  | 108000 nM |  |  |  |  |  | −71.7 | 
10 | CCCCCCCn1nc(C(=O)NN2CCCCC2)c(C)c1-c1ccc(Cl)cc1 [MF10278-20-15] |  |  | 156000 nM |  |  |  |  |  | −85.7 | 
11 | CCCCCCn1nc(C(=O)NN2CCCCC2)c(C)c1-c1ccc(Cl)cc1 [MF10278-22-16] |  |  | 74700 nM |  |  |  |  |  | −71.5 | 
12 | SR144528 [reference compound] | 68.6% | 88.4% |  |  | 84.7% |  |  |  | −27.7 | Max. Disp. %, 3H-CP55940 (CB1 receptor; whole rat brain, 3H-CP55940, Table 4, parallel synthesis analogs, n = 1): 84.7%; Max. Disp. %, 3H-SR141716A (CB1 receptor; whole rat brain, 3H-SR141716A, Table 4, parallel synthesis analogs, n = 1): 68.6%
